Measured values reported in US10869931B2, “Polyethylene glycol-modified angiogenesis inhibitor HM-1 and application thereof” (NANJING ANJI BIOLOGICAL TECHNOLOGY CO.,LTD, priority 2016, dated 2020).
Where no end group is shown, it is not given here.

Columns and labels:
[1] = test system: Head and neck cancer tumor cells; assay: MTT proliferation inhibition, head and neck cancer cells; type: cell-based, human; design: concentration or dose not given beside the values; settings: 48 h
Description: (§1) The activity of mPEG-HM-1 to inhibit the growth of various tumor cells was examined by MTT assay. The tumor cells were cultured to a concentration of 90% or more in a 37° C., 5% CO2 incubator and collected by trypsinization. The cells were resuspended in the culture medium and counted under a microscope to adjust the cell concentration to 2×10^4 cells/mL, the cell suspension was inoculated into a 96-well plate at 100 μL/well and incubated overnight at 37° C. in a 5% CO2 incubator. mPEG-HM-1 was diluted with the culture solution to each predetermined concentration. Docetaxel is diluted to the final concentration with the culture medium. After the cells were fully attached, each dilution was added to a 96-well plate (100 μL/well). The mPEG-HM-1 dilution was added as a drug-administered group, and docetaxel was added as a positive control group, and a culture solution without any drug was used as a negative control group. Incubate for 48 h at 37° C. in a 5% CO2 incubator. 5 mg/mL of MTT was added to a 96-well plate at 20 μL per well, and incubation was continued for 4 hours. The medium was aspirated, dissolved in 150 μL of DMSO per well, and gently mixed by shaking for 10 min. The absorbance was measured at a measurement wavelength of 570 nm and a reference wavelength of 630 nm using a microplate reader, and the rate of growth inhibition (proliferation inhibition, PI) was calculated. The formula is as follows: PI (%)=1−administration group/negative group
(§2) The test was repeated 3 times independently, and the results obtained by the test were expressed as mean±SD, and the test results are shown in Table 15 to Table 18.

[2] = test system: Thyroid cancer tumor cells; assay: MTT proliferation inhibition, thyroid cancer cells; type: cell-based, human; design: concentration or dose not given beside the values; settings: 48 h
Description: as §1, §2

[3] = test system: Esophageal cancer tumor cells; assay: MTT proliferation inhibition, esophageal cancer cells; type: cell-based, human; design: concentration or dose not given beside the values; settings: 48 h
Description: as §1, §2

[4] = test system: Prostate cancer tumor cells; assay: MTT proliferation inhibition, prostate cancer cells; type: cell-based, human; design: concentration or dose not given beside the values; settings: 48 h
Description: as §1, §2

[5] = test system: sarcoma tumor cells; assay: MTT proliferation inhibition, sarcoma cells; type: cell-based, human; design: concentration or dose not given beside the values; settings: 48 h
Description: as §1, §2

[6] = test system: choroidal neovascularization in BN rats; assay: Laser-induced choroidal neovascularization in BN rats (FFA); type: in vivo, rat
Description: 6-8 weeks old male BN rats were anesthetized with 846 compound anesthetic 0.5 mL/kg administered intraperitoneally. The eye drops of compound tropamide eyes were used 5 minutes before laser photocoagulation, and the pupils of both eyes were fully scattered. Fix animals, with the aid of −53.00 D contact lens, around the optic disc and along the same distance from the optic disc 2PD, the laser beam photocoagulation were performed to make a total of 8 photo-condensation spots, with laser wavelength of 647.1 nm, power of 350 mW, photocoagulation spot diameter and time were 50 μm and 0.05 s, respectively. Immediately after photocoagulation, fundus photography was performed. FFA, histopathology and transmission electron microscopy were performed at 3, 7, 14, 21, and 28 days after photocoagulation.
It was confirmed by fundus photography and FFA examination that the fluorescein leakage of photocoagulation peaked on the 21st day after photocoagulation, and histopathological examination was performed at the same time. […] A large number of neovascular vessels were seen, and red blood cells were visible in the lumen. Microscopically, capillary cells in the choroidal melanocytes were cohesively altered and endothelial cells aggregated.
Rats that were successfully modeled were randomly divided into groups of 5 rats each. They were labeled as negative control group, mPEG-SC-HM-1 treatment group, mPEG2-NHS-HM-1 treatment group, mPEG-ALD-HM-1 treatment group and mPEG-bALD-HM-1 treatment group, respectively. Saline, mPEG-HM-1 (see Table 53 for dosing) was administered intravitreally, once daily for 1 week. FFA examinations were performed 3 days, 7 days, 14 days, and 28 days after administration of the modified peptides.

[7] = test system: neovascularization in rat model of premature retinopathy; assay: Fluctuating-oxygen rat model of premature retinopathy (endothelial nuclei count); type: in vivo; settings: for Cell nuclei count: day 14
Description: A fluctuating oxygen-induced animal model was used to randomly divide the newborn rats that were naturally delivered on the same day (within 12 hours) into three groups: the oxygenated model group, the oxygenated treatment group, and the normal control group. The oxygenated model group was subdivided into three subgroup models and along with the oxygenated treatment group was placed in a semi-closed oxygen chamber made of plexiglass. The chamber was connected to medical oxygen, and the oxygen analyzer was adjusted to a concentration of 80%±2%. After 24 hours, Nitrogen gas was introduced into the oxygen chamber, and the oxygen concentration was adjusted to 10%±2% and maintained for 24 h. This process was repeated, so that the oxygen concentration in the oxygen chamber is switched between 80% and 10% every 24 hours, and then transferred to the air for 7 days. The oxygen concentration was monitored 8 times a day, and the ambient temperature in the control cabin was 23° C.±2° C. Bedding change, adding food, changing water and replacing mother rats were performed once a day. The normal control group was placed in an animal facility environment. […] The oxygenated therapeutic components were divided into four subgroups, and on the 7th day of modeling, mPEG-SC-HM-1, mPEG2-NHS-HM-1, mPEG-ALD10k-HM-1, and mPEG-bALD-HM-1 were respectively administered by intravitreal injection. Only normal saline was administered to the oxygen model group and the control group. The administrations continued for 1 week. […] After immersion in wax, serial section at thickness of 4 μm was performed, wherein the sections were kept away from the optic disc. The sections are parallel to the sagittal plane of the cornea to the optic disc. Ten sections per eyeball were randomly selected from each eyeball to be stained with hematoxylin and eosin, and the number of vascular endothelial cells that broke through the retinal inner membrane was counted (only the vascular endothelial nucleus closely related to the inner retinal membrane was counted), and the average numbers of endothelial cells per eyeball per slice was counted.

[8] = Day 3 after administration, 100 μg intravitreally once daily for 1 week (Table 53)
[9] = Day 3 after administration, 100 μg intravitreally once daily for 1 week (Table 53), total spots 290-296 by table
[10] = Day 7, 100 μg intravitreally once daily for 1 week (Table 53)
[11] = Day 7, 100 μg intravitreally once daily for 1 week (Table 53), total spots 182-188 by table
[12] = Day 14, 100 μg intravitreally once daily for 1 week (Table 53)
[13] = Day 14, 100 μg intravitreally once daily for 1 week (Table 53), total spots 132-138 by table
[14] = Day 28, 100 μg intravitreally once daily for 1 week (Table 53)
[15] = Day 28, 100 μg intravitreally once daily for 1 week (Table 53), total spots 67-71 by table
[16] = 100 μg intravitreal for 1 week from day 7, vascular endothelial nuclei per slice
[17] = Day 3 after administration, 200 μg intravitreally once daily for 1 week (Table 53)
[18] = Day 3 after administration, 200 μg intravitreally once daily for 1 week (Table 53), total spots 290-296 by table
[19] = Day 7, 200 μg intravitreally once daily for 1 week (Table 53)
[20] = Day 7, 200 μg intravitreally once daily for 1 week (Table 53), total spots 182-188 by table
[21] = Day 14, 200 μg intravitreally once daily for 1 week (Table 53)
[22] = Day 14, 200 μg intravitreally once daily for 1 week (Table 53), total spots 132-138 by table
[23] = Day 28, 200 μg intravitreally once daily for 1 week (Table 53)
[24] = Day 28, 200 μg intravitreally once daily for 1 week (Table 53), total spots 67-71 by table
[25] = 200 μg intravitreal for 1 week from day 7, vascular endothelial nuclei per slice

Substance	rate of growth inhibition [1] [%]	rate of growth inhibition [2] [%]	rate of growth inhibition [3] [%]	rate of growth inhibition [4] [%]	rate of growth inhibition [5] [%]	CNV Incidence rate [6, 8] [%]	leakage Spots # [6, 9]	CNV Incidence rate [6, 10] [%]	leakage Spots # [6, 11]	CNV Incidence rate [6, 12] [%]	leakage Spots # [6, 13]	CNV Incidence rate [6, 14] [%]	leakage Spots # [6, 15]	Cell nuclei count [7, 16]	CNV Incidence rate [6, 17] [%]	leakage Spots # [6, 18]	CNV Incidence rate [6, 19] [%]	leakage Spots # [6, 20]	CNV Incidence rate [6, 21] [%]	leakage Spots # [6, 22]	further results
mPEG-ALD20k-Arg-Gly-Ala-Asp-Arg-Ala-Gly-Gly-Gly-Gly-Arg-Gly-Asp ({mPEG‑ALD 20 kDa}-RGADRAGGGGRGD) [mPEG-ALD20k-HM-1]	47.61 ± 10.68	50.35 ± 15.23	60.18 ± 15.32	43.99 ± 12.77	50.96 ± 11.68	51.72	150	48.90	89	45.45	60	40.85	29	7.036 ± 1.315							vascular endothelial cell nuclei count ([7]; neonatal rats, 100 μg intravitreal, 1 week): 7.036±1.315
mPEG-ALD40k-Arg-Gly-Ala-Asp-Arg-Ala-Gly-Gly-Gly-Gly-Arg-Gly-Asp ({mPEG‑ALD 40 kDa}-RGADRAGGGGRGD) [mPEG-ALD40k-HM-1]	42.18 ± 10.01	49.03 ± 13.08	58.11 ± 14.67	42.91 ± 11.65	45.93 ± 10.77										52.41	152	50.55	92	46.97	62	CNV Incidence rate [6, 23]: 42.25%; leakage Spots # [6, 24]: 30; Cell nuclei count [7, 25]: 8.673 ± 2.756
mPEG-SC5k-Arg-Gly-Ala-Asp-Arg-Ala-Gly-Gly-Gly-Gly-Arg-Gly-Asp ({mPEG‑SC 5 kDa}-RGADRAGGGGRGD) [mPEG-SC5k-HM-1]	40.27 ± 11.36	39.23 ± 13.18	44.38 ± 10.72	38.37 ± 15.61	39.42 ± 11.15																CNV Incidence rate ([6]; Day 3 after administration, 25 μg intravitreally once daily for 1 week (Table 53)): 54.73%; leakage Spots # ([6]; Day 3 after administration, 25 μg intravitreally once daily for 1 week (Table 53), total spots 290-296 by table): 162; CNV Incidence rate ([6]; Day 7, 25 μg intravitreally once daily for 1 week (Table 53)): 53.19%; leakage Spots # ([6]; Day 7, 25 μg intravitreally once daily for 1 week (Table 53), total spots 182-188 by table): 100; CNV Incidence rate ([6]; Day 14, 25 μg intravitreally once daily for 1 week (Table 53)): 48.15%; leakage Spots # ([6]; Day 14, 25 μg intravitreally once daily for 1 week (Table 53), total spots 132-138 by table): 65; CNV Incidence rate ([6]; Day 28, 25 μg intravitreally once daily for 1 week (Table 53)): 47.76%; leakage Spots # ([6]; Day 28, 25 μg intravitreally once daily for 1 week (Table 53), total spots 67-71 by table): 32; Cell nuclei count ([7]; 25 μg intravitreal for 1 week from day 7, vascular endothelial nuclei breaking through inner retinal membrane per slice): 9.104 ± 3.087
mPEG-SC10k-Arg-Gly-Ala-Asp-Arg-Ala-Gly-Gly-Gly-Gly-Arg-Gly-Asp ({mPEG‑SC 10 kDa}-RGADRAGGGGRGD) [mPEG-SC10k-HM-1]	45.61 ± 11.12	46.23 ± 13.05	52.18 ± 10.25	45.39 ± 12.63	45.49 ± 11.89																incidence of CNV ([6]; BN rats, 28 days after administration, intravitreal once daily for 1 week): 38.81%; CNV Incidence rate ([6]; Day 3 after administration, 50 μg intravitreally once daily for 1 week (Table 53)): 49.66%; leakage Spots # ([6]; Day 3 after administration, 50 μg intravitreally once daily for 1 week (Table 53), total spots 290-296 by table): 147; CNV Incidence rate ([6]; Day 7, 50 μg intravitreally once daily for 1 week (Table 53)): 45.74%; leakage Spots # ([6]; Day 7, 50 μg intravitreally once daily for 1 week (Table 53), total spots 182-188 by table): 86; CNV Incidence rate ([6]; Day 14, 50 μg intravitreally once daily for 1 week (Table 53)): 42.96%; leakage Spots # ([6]; Day 14, 50 μg intravitreally once daily for 1 week (Table 53), total spots 132-138 by table): 58; CNV Incidence rate ([6]; Day 28, 50 μg intravitreally once daily for 1 week (Table 53)): 38.81%; leakage Spots # ([6]; Day 28, 50 μg intravitreally once daily for 1 week (Table 53), total spots 67-71 by table): 26; Cell nuclei count ([7]; 50 μg intravitreal for 1 week from day 7, vascular endothelial nuclei per slice): 8.528 ± 3.109
mPEG-SC20k-Arg-Gly-Ala-Asp-Arg-Ala-Gly-Gly-Gly-Gly-Arg-Gly-Asp ({mPEG‑SC 20 kDa}-RGADRAGGGGRGD) [mPEG-SC20k-HM-1]	49.26 ± 10.32	50.78 ± 13.46	55.51 ± 16.22	49.35 ± 10.04	48.93 ± 10.53	51.35	152	48.94	92	45.93	62	41.79	28	7.372 ± 2.078							
mPEG-SC40k-Arg-Gly-Ala-Asp-Arg-Ala-Gly-Gly-Gly-Gly-Arg-Gly-Asp ({mPEG‑SC 40 kDa}-RGADRAGGGGRGD) [mPEG-SC40k-HM-1]	43.22 ± 10.25	50.13 ± 14.21	52.12 ± 12.35	45.93 ± 12.72	45.26 ± 11.61										50.68	150	50.00	94	44.44	60	CNV Incidence rate [6, 23]: 43.28%; leakage Spots # [6, 24]: 29; Cell nuclei count [7, 25]: 8.089 ± 2.935
